Source: ChEMBL document CHEMBL5303573, “Mapping human microbiome drug metabolism by gut bacteria and their genes” (Nature, 2019)

Legend:
[1] = segatella copri, 12 h, 2 µM
Description: The drug is tested on Prevotella copri strain: DSM18205 for biotransformation. The drug concentrations were measured before and after a 12-h incubation by liquid-chromatography-coupled mass spectrometry (LC–MS)

[2] = The drug is tested on Clostridium asparagiforme strain: DSM15981 for biotransformation. The drug concentrations were measured before and after a 12-h incubation by liquid-chromatography-coupled mass spectrometry (LC–MS); type: ADME; design: dose 2 uM, timepoint 0 vs 12 hours; conditions: enterocloster asparagiformis, 2 µM
[3] = bacteroides intestinalis, 12 h, 2 µM
Description: The drug is tested on Bacteroides intestinalis strain: DSM17393 for biotransformation. The drug concentrations were measured before and after a 12-h incubation by liquid-chromatography-coupled mass spectrometry (LC–MS)

[4] = The drug is tested on Bacteroides uniformis strain: ATCC8492 for biotransformation. The drug concentrations were measured before and after a 12-h incubation by liquid-chromatography-coupled mass spectrometry (LC–MS); conditions: 2 µM
[5] = bacteroides eggerthii, 12 h, 2 µM
Description: The drug is tested on Bacteroides eggerthii strain: DSM20697 for biotransformation. The drug concentrations were measured before and after a 12-h incubation by liquid-chromatography-coupled mass spectrometry (LC–MS)

[6] = bifidobacterium adolescentis, 12 h, 2 µM
Description: The drug is tested on Bifidobacterium adolescentis strain: ATCC 15703 for biotransformation. The drug concentrations were measured before and after a 12-h incubation by liquid-chromatography-coupled mass spectrometry (LC–MS)

[7] = akkermansia muciniphila, 12 h, 2 µM
Description: The drug is tested on Akkermansia muciniphila strain: ATCC BAA-835 for biotransformation. The drug concentrations were measured before and after a 12-h incubation by liquid-chromatography-coupled mass spectrometry (LC–MS)

[8] = The drug is tested on Eubacterium rectale strain: ATCC33656 for biotransformation. The drug concentrations were measured before and after a 12-h incubation by liquid-chromatography-coupled mass spectrometry (LC–MS); conditions: agathobacter rectalis, 2 µM
[9] = parabacteroides distasonis, 12 h, 2 µM
Description: The drug is tested on Parabacteroides distasonis strain: ATCC8503 for biotransformation. The drug concentrations were measured before and after a 12-h incubation by liquid-chromatography-coupled mass spectrometry (LC–MS)

[10] = The drug is tested on Eubacterium hallii strain: DSM3353 for biotransformation. The drug concentrations were measured before and after a 12-h incubation by liquid-chromatography-coupled mass spectrometry (LC–MS); conditions: anaerobutyricum hallii, 2 µM
[11] = The drug is tested on Anaerotruncus colihominis strain: DSM17241 for biotransformation. The drug concentrations were measured before and after a 12-h incubation by liquid-chromatography-coupled mass spectrometry (LC–MS); conditions: 2 µM
[12] = The drug is tested on Clostridium sp. strain: fecal isolate for biotransformation. The drug concentrations were measured before and after a 12-h incubation by liquid-chromatography-coupled mass spectrometry (LC–MS); conditions: 2 µM
[13] = The drug is tested on Bifidobacterium ruminantium strain: fecal isolate for biotransformation. The drug concentrations were measured before and after a 12-h incubation by liquid-chromatography-coupled mass spectrometry (LC–MS); conditions: 2 µM
[14] = The drug is tested on Bacteroides pectinophilus strain: ATCC43243 for biotransformation. The drug concentrations were measured before and after a 12-h incubation by liquid-chromatography-coupled mass spectrometry (LC–MS); conditions: 2 µM
[15] = The drug is tested on Bifidobacterium longum subsp. Infantis strain: CCUG52486 for biotransformation. The drug concentrations were measured before and after a 12-h incubation by liquid-chromatography-coupled mass spectrometry (LC–MS); conditions: 2 µM
[16] = enterocloster bolteae, 12 h, 2 µM
Description: The drug is tested on Clostridium bolteae strain: ATCCBAA-613 for biotransformation. The drug concentrations were measured before and after a 12-h incubation by liquid-chromatography-coupled mass spectrometry (LC–MS)

[17] = The drug is tested on Providencia stuartii strain: ATCC25827 for biotransformation. The drug concentrations were measured before and after a 12-h incubation by liquid-chromatography-coupled mass spectrometry (LC–MS); conditions: 2 µM
[18] = The drug is tested on Coprococcus comes strain: ATCC27758 for biotransformation. The drug concentrations were measured before and after a 12-h incubation by liquid-chromatography-coupled mass spectrometry (LC–MS); type: ADME; design: dose 2 uM, timepoint 0 vs 12 hours; conditions: 2 µM
[19] = The drug is tested on Providencia rettgeri strain: DSM1131 for biotransformation. The drug concentrations were measured before and after a 12-h incubation by liquid-chromatography-coupled mass spectrometry (LC–MS); type: ADME; design: dose 2 uM, timepoint 0 vs 12 hours; conditions: 2 µM
[20] = roseburia intestinalis, 12 h, 2 µM
Description: The drug is tested on Roseburia intestinalis strain: L1-82 for biotransformation. The drug concentrations were measured before and after a 12-h incubation by liquid-chromatography-coupled mass spectrometry (LC–MS)

Bacterial Biotransformation [1] | Bacterial Biotransformation [2] | Bacterial Biotransformation [3] | Bacterial Biotransformation [4] | Bacterial Biotransformation [5] | Bacterial Biotransformation [6] | Bacterial Biotransformation [7] | Bacterial Biotransformation [8] | Bacterial Biotransformation [9] | Bacterial Biotransformation [10] | Bacterial Biotransformation [11] | Bacterial Biotransformation [12] | Bacterial Biotransformation [13] | Bacterial Biotransformation [14] | Bacterial Biotransformation [15] | Bacterial Biotransformation [16] | Bacterial Biotransformation [17] | Bacterial Biotransformation [18] | Bacterial Biotransformation [19] | Bacterial Biotransformation [20] | SMILES
Compound NOT metabolized | Compound NOT metabolized | Compound NOT metabolized | Compound metabolized | Compound NOT metabolized | Compound NOT metabolized | Compound NOT metabolized | Compound NOT metabolized | Compound NOT metabolized | Compound NOT metabolized | Compound NOT metabolized | Compound NOT metabolized | Compound NOT metabolized | Compound NOT metabolized | Compound NOT metabolized | Compound NOT metabolized |  |  |  |  | C[C@]12CCC(=O)C=C1[C@@H]1C[C@@H]1[C@H]1[C@@H]3[C@@H]4C[C@@H]4[C@@]4(CCC(=O)O4)[C@@]3(C)CC[C@@H]12 [DROSPIRENONE]
Compound NOT metabolized | Compound NOT metabolized |  | Compound metabolized | Compound NOT metabolized | Compound NOT metabolized | Compound NOT metabolized |  | Compound NOT metabolized | Compound NOT metabolized | Compound NOT metabolized | Compound NOT metabolized | Compound NOT metabolized | Compound NOT metabolized | Compound NOT metabolized | Compound NOT metabolized | Compound NOT metabolized | Compound NOT metabolized | Compound NOT metabolized |  | CCc1cccc2c3c([nH]c12)C(CC)(CC(=O)O)OCC3 (centres undefined) [ETODOLAC]
 | Compound NOT metabolized | Compound NOT metabolized | Compound metabolized | Compound NOT metabolized | Compound NOT metabolized |  | Compound NOT metabolized | Compound NOT metabolized | Compound NOT metabolized | Compound NOT metabolized | Compound NOT metabolized | Compound NOT metabolized | Compound NOT metabolized | Compound NOT metabolized | Compound NOT metabolized | Compound NOT metabolized | Compound NOT metabolized |  |  | Cc1nc(-c2ccc(OCC(C)C)c(C#N)c2)sc1C(=O)O [FEBUXOSTAT]
Compound metabolized | Compound NOT metabolized | Compound NOT metabolized | Compound metabolized | Compound NOT metabolized | Compound NOT metabolized |  | Compound NOT metabolized |  |  | Compound NOT metabolized | Compound metabolized | Compound NOT metabolized | Compound NOT metabolized | Compound NOT metabolized | Compound NOT metabolized | Compound NOT metabolized |  | Compound NOT metabolized |  | NC(CO)(CO)CO.O=C(c1ccccc1)c1ccc2n1CCC2C(=O)O (centres undefined) [KETOROLAC TROMETHAMINE]
Compound NOT metabolized | Compound NOT metabolized |  | Compound metabolized | Compound metabolized |  | Compound NOT metabolized |  | Compound NOT metabolized | Compound NOT metabolized | Compound NOT metabolized | Compound metabolized | Compound NOT metabolized | Compound NOT metabolized | Compound NOT metabolized | Compound NOT metabolized | Compound NOT metabolized |  | Compound NOT metabolized | Compound NOT metabolized | CC(C)c1nc(CN(C)C(=O)N[C@H](C(=O)N[C@@H](Cc2ccccc2)C[C@H](O)[C@H](Cc2ccccc2)NC(=O)OCc2cncs2)C(C)C)cs1 [RITONAVIR]
Compound NOT metabolized | Compound NOT metabolized | Compound NOT metabolized | Compound NOT metabolized | Compound NOT metabolized | Compound NOT metabolized |  | Compound NOT metabolized | Compound NOT metabolized | Compound NOT metabolized | Compound NOT metabolized | Compound NOT metabolized | Compound NOT metabolized | Compound NOT metabolized | Compound NOT metabolized | Compound NOT metabolized | Compound NOT metabolized | Compound NOT metabolized |  | Compound NOT metabolized | Nc1c2c(nc3ccccc13)CCCC2 [TACRINE]
Compound NOT metabolized | Compound NOT metabolized | Compound NOT metabolized | Compound NOT metabolized | Compound NOT metabolized | Compound NOT metabolized | Compound NOT metabolized |  | Compound NOT metabolized | Compound NOT metabolized | Compound NOT metabolized | Compound NOT metabolized | Compound NOT metabolized | Compound NOT metabolized | Compound NOT metabolized | Compound NOT metabolized | Compound NOT metabolized | Compound NOT metabolized | Compound NOT metabolized | Compound NOT metabolized | CCOc1ccccc1OCCN[C@H](C)Cc1ccc(OC)c(S(N)(=O)=O)c1.Cl [TAMSULOSIN HYDROCHLORIDE]
Compound NOT metabolized | Compound NOT metabolized | Compound NOT metabolized | Compound NOT metabolized | Compound NOT metabolized | Compound NOT metabolized | Compound NOT metabolized | Compound NOT metabolized |  | Compound NOT metabolized |  | Compound NOT metabolized | Compound NOT metabolized | Compound NOT metabolized | Compound NOT metabolized |  | Compound NOT metabolized |  |  | Compound NOT metabolized | CN1C(C(=O)Nc2ccccn2)=C(O)c2sccc2S1(=O)=O [TENOXICAM]
 | Compound NOT metabolized | Compound NOT metabolized | Compound metabolized |  | Compound NOT metabolized |  | Compound NOT metabolized | Compound NOT metabolized | Compound NOT metabolized | Compound NOT metabolized | Compound metabolized | Compound metabolized | Compound NOT metabolized | Compound NOT metabolized |  | Compound NOT metabolized | Compound NOT metabolized |  |  | OC(CCN1CCCCC1)(c1ccccc1)C1CCCCC1 (centres undefined) [TRIHEXYPHENIDYL]

SMILES | Bacterial Biotransformation [1] | Bacterial Biotransformation [2] | Bacterial Biotransformation [3] | Bacterial Biotransformation [4] | Bacterial Biotransformation [5] | Bacterial Biotransformation [6] | Bacterial Biotransformation [7] | Bacterial Biotransformation [8] | Bacterial Biotransformation [9] | Bacterial Biotransformation [10] | Bacterial Biotransformation [11] | Bacterial Biotransformation [12] | Bacterial Biotransformation [13] | Bacterial Biotransformation [14] | Bacterial Biotransformation [15] | Bacterial Biotransformation [16] | Bacterial Biotransformation [17] | Bacterial Biotransformation [18] | Bacterial Biotransformation [19] | Bacterial Biotransformation [20]
O=C(CCCN1CCC2(CC1)C(=O)NCN2c1ccccc1)c1ccc(F)cc1 [SPIPERONE] | Compound NOT metabolized | Compound NOT metabolized | Compound NOT metabolized | Compound NOT metabolized | Compound NOT metabolized | Compound NOT metabolized | Compound NOT metabolized |  |  | Compound NOT metabolized |  | Compound NOT metabolized | Compound NOT metabolized | Compound NOT metabolized | Compound NOT metabolized | Compound NOT metabolized |  |  |  | 
